Measured values reported in patent US10870625B2, “Zwitterionic propargyl-linked antifolates useful for treating bacterial infections” (THE UNIVERSITY OF CONNECTICUT, priority 2016, dated 2020).
Values after ≈ are worked out from the molar mass of the structure shown. Read-outs that look alike come from different tables or passages of the source.

Tests used:
E. coli (Ec) DHFR = E. coli (Ec) DHFR (Escherichia coli (strain K12), UniProt P0ABQ4); assay: E. coli DHFR enzyme inhibition (NADPH oxidation, 340 nm); assay type: biochemical
[1] = system: S. aureus ATCC strain 43300; assay: microbe, parasite or virus in culture; assay type: cell-based, Staphylococcus aureus; settings: for MIC Sa43300: Table 12, wild-type strain
E. coli (ATCC 25922) = assay: E. coli MIC, microdilution broth assay; assay type: cell-based, Escherichia coli
Description: Minimum inhibitory concentrations were determined using E. coli (ATCC 25922) and the microdilution broth assay with an inoculum of […] CFU/mL in Isosensitest Broth (Oxoid).

E. coli NR698 = assay type: cell-based, Escherichia coli
Mtb = assay: M. tuberculosis MIC, microtiter broth dilution (Table 6); assay type: cell-based, Mycobacterium tuberculosis
Description: (§1) (provided by Leonid Heifets).
(§2) Each isolate was tested in duplicate.

Mtb Erdman = Mtb Erdman MIC, microtiter broth dilution; assay type: cell-based, Mycobacterium tuberculosis
Description: as §1, §2

Mtb 5 = assay type: cell-based, Mycobacterium tuberculosis; settings: XDR strain
Mtb 365 = assay type: cell-based, Mycobacterium tuberculosis; settings: MDR strain
Mtb 276 = assay type: cell-based, Mycobacterium tuberculosis; settings: MDR strain
Mtb 352 = assay type: cell-based, Mycobacterium tuberculosis; settings: MDR strain
Mtb 56 = assay type: cell-based, Mycobacterium tuberculosis; settings: MDR strain
Mtb C-31 = assay type: cell-based, Mycobacterium tuberculosis; settings: MDR strain
S. aureus (Sa) DHFR = S. aureus (Sa) DHFR (Staphylococcus aureus, UniProt P0A017); assay type: biochemical; settings: Table 2
MtbDHFR = MtbDHFR (Mycobacterium tuberculosis (strain ATCC 25618 / H37Rv), UniProt P9WNX1); assay: M. tuberculosis DHFR enzyme inhibition; assay type: biochemical

CCc1nc(N)nc(N)c1C#CCc1cc(OC)cc(-c2ccc(C(=O)O)cc2)c1 [Compound 16]
IC50 (E. coli (Ec) DHFR; Table 2): 507 nM
MIC S. aureus 43300 [1]: 0.0195 µg/mL (≈ 0.0485 µM)
MIC Sa43300 [1]: 0.0195 µg/mL (≈ 0.0485 µM)
MIC E. coli 25922 (E. coli (ATCC 25922); Table 2, wild-type E. coli): >20 µg/mL
MIC E. coli NR698 (E. coli NR698; Table 2): 0.0049 µg/mL (≈ 0.0122 µM)
MIC Sa(H30N) (Sa(H30N) strain): 0.1563 µg/mL (≈ 0.388 µM)

CCc1nc(N)nc(N)c1C#CC(C)c1cc2c(c(-c3cncn3C)c1)OCO2 (stereo not shown) [Compound 54]
MIC Mtb (Mtb): 2 µg/mL (≈ 5.12 µM)
MIC Mtb Erdman (Mtb Erdman): 4 µg/mL (≈ 10.2 µM)
MIC Mtb 5 (Mtb 5): 8 µg/mL (≈ 20.5 µM)
MIC Mtb 365 (Mtb 365): 8 µg/mL (≈ 20.5 µM)
MIC Mtb 276 (Mtb 276): 4 µg/mL (≈ 10.2 µM)
MIC Mtb 352 (Mtb 352): 4 µg/mL (≈ 10.2 µM)
MIC Mtb56 (Mtb 56): 8 µg/mL (≈ 20.5 µM)
MIC Mtb C-31 (Mtb C-31): 8 µg/mL (≈ 20.5 µM)

CCc1nc(N)nc(N)c1C#C[C@@H](C)c1cc(OC)cc(-c2ccc(C(=O)O)cc2)c1 [Compound 32]
MIC S. aureus 43300 [1]: 0.0098 µg/mL (≈ 0.0235 µM)
MIC Sa43300 [1]: 0.0098 µg/mL (≈ 0.0235 µM)
MIC E. coli 25922 (E. coli (ATCC 25922); Table 2, wild-type E. coli): 10 µg/mL (≈ 24 µM)
MIC E. coli NR698 (E. coli NR698; Table 2): 0.0024 µg/mL (≈ 0.00576 µM)
MIC Sa(H30N) (Sa(H30N) strain): 0.0781 µg/mL (≈ 0.188 µM)

CCc1nc(N)nc(N)c1C#CCc1cc(-c2ccccc2C(=O)O)ccc1OC [Compound 13]
IC50 (S. aureus (Sa) DHFR): 359 nM
IC50 (E. coli (Ec) DHFR; Table 2): 195 nM
MIC S. aureus 43300 [1]: >20 µg/mL
MIC E. coli 25922 (E. coli (ATCC 25922); Table 2, wild-type E. coli): >32 µg/mL
MIC E. coli NR698 (E. coli NR698; Table 2): 20 µg/mL (≈ 49.7 µM)

CCc1nc(N)nc(N)c1C#CC(C)c1cc2c(c(-c3ccncc3)c1)OCO2 (stereo not shown) [F, reference compound]
MIC Sa43300 [1]: 0.0195 µg/mL (≈ 0.0503 µM)
MIC Sa(H30N) (Sa(H30N) strain): 2.5 µg/mL (≈ 6.45 µM)

CCc1nc(N)nc(N)c1C#CC(C)c1cc(OC)cc(-c2ccncc2)c1 (stereo not shown) [Compound D, reference compound]
MIC Sa43300 [1]: 0.0391 µg/mL (≈ 0.105 µM)
MIC Sa(H30N) (Sa(H30N) strain): 0.625 µg/mL (≈ 1.67 µM)

CCc1nc(N)nc(N)c1C#CCc1cc(OC)c(OC)c(-c2ccncc2)c1 [Compound 60]
MIC Sa43300 [1]: 0.0195 µg/mL (≈ 0.0501 µM)
MIC Sa(H30N) (Sa(H30N) strain): 0.625 µg/mL (≈ 1.6 µM)

CCc1nc(N)nc(N)c1C#CCc1cc2c(c(-c3ccc(O)c(F)c3)c1)OCO2 [Compound 38]
IC50 (E. coli (Ec) DHFR; Table 3): 1250 nM
MIC E. coli 25922 (E. coli (ATCC 25922); Table 3): 0.625 µg/mL (≈ 1.54 µM)
MIC E. coli NR698 (E. coli NR698; Table 3): 0.001 µg/mL (≈ 0.00246 µM)

CCc1nc(N)nc(N)c1C#CCc1cc2c(c(-c3cc(F)c(O)c(F)c3)c1)OCO2 [Compound 39]
IC50 (E. coli (Ec) DHFR; Table 3): 625 nM
MIC E. coli 25922 (E. coli (ATCC 25922); Table 3): 0.625 µg/mL (≈ 1.47 µM)
MIC E. coli NR698 (E. coli NR698; Table 3): 0.001 µg/mL (≈ 0.00236 µM)

CCc1nc(N)nc(N)c1C#CC(C)c1cc2c(c(-c3ccncc3)c1)OCO2 (stereo not shown) [Compound B, reference compound]
MIC Sa43300 [1]: 0.0781 µg/mL (≈ 0.202 µM)
MIC Sa(H30N) (Sa(H30N) strain): 5 µg/mL (≈ 12.9 µM)

CCc1nc(N)nc(N)c1C#CCc1cc2c(c(-c3ccc(O)cc3)c1)OCO2 [Compound 37]
IC50 (E. coli (Ec) DHFR; Table 3): 2500 nM
MIC E. coli 25922 (E. coli (ATCC 25922); Table 3): 0.625 µg/mL (≈ 1.61 µM)
MIC E. coli NR698 (E. coli NR698; Table 3): 0.002 µg/mL (≈ 0.00515 µM)

CCc1nc(N)nc(N)c1C#CCc1ccc(OC)c(-c2ccc(C(=O)O)cc2)c1 [Compound 59]
IC50 (MtbDHFR): 460 nM
MIC Mtb (Mtb): 0.5 µg/mL (≈ 1.24 µM)
MIC Mtb Erdman (Mtb Erdman): 0.5 µg/mL (≈ 1.24 µM)
MIC Mtb 5 (Mtb 5): 2 µg/mL (≈ 4.97 µM)
MIC Mtb 365 (Mtb 365): 0.125 µg/mL (≈ 0.311 µM)
MIC Mtb 352 (Mtb 352): 0.5 µg/mL (≈ 1.24 µM)
MIC Mtb56 (Mtb 56): 0.5 µg/mL (≈ 1.24 µM)
MIC Mtb C-31 (Mtb C-31): 8 µg/mL (≈ 19.9 µM)

CCc1nc(N)nc(N)c1C#C[C@H](C)c1cc2c(c(-c3ccncc3)c1)OCO2 [Compound 55]
IC50 (MtbDHFR): 206 nM
MIC Mtb (Mtb): 4 µg/mL (≈ 10.3 µM)
MIC Mtb Erdman (Mtb Erdman): 8 µg/mL (≈ 20.6 µM)
MIC Mtb 5 (Mtb 5): 8 µg/mL (≈ 20.6 µM)
MIC Mtb 365 (Mtb 365): 4 µg/mL (≈ 10.3 µM)
MIC Mtb 276 (Mtb 276): 8 µg/mL (≈ 20.6 µM)
MIC Mtb 352 (Mtb 352): 8 µg/mL (≈ 20.6 µM)
MIC Mtb56 (Mtb 56): 8 µg/mL (≈ 20.6 µM)
MIC Mtb C-31 (Mtb C-31): 16 µg/mL (≈ 41.3 µM)
